Measurements as given in patent publication US9255272B2, “Use of inhibitors of leukotriene B4 receptor BLT2 for treating asthma” (Korea University Research & Business Foundation, priority 2007, dated 2016).

Experiments:
Format in all cases: in vivo, mouse
[1] = tested on: OVA-challenged mice; assay: AHR (Penh) in response to methacholine in OVA-challenged mice; conditions: for reduction of Penh (based on area-under-the-curve calculations): methacholine 6.25-50 mg/ml, 24 h after last OVA challenge
Protocol: Female BALB/c mice and C57BL/6 mice (7 weeks old; 18-20 g) were obtained from Orientbion Inc. (Seoungnam, Korea). Sensitization and challenge were carried out as described previously with some modification (28). Briefly, female C57BL/6 mice (7 weeks old; 18-20 g) were immunized by intraperitoneal (i.p.) injection of 200 μg ovalbumin (OVA) emulsified in 2.5 mg of adjuvant aluminum hydroperoxide gel (alum) (Pierce, Rockford, Ill.). A second i.p. injection of 20 μg OVA adsorbed onto alum (2.5 mg) was administered 10 days later. After an additional 10 days, mice were exposed to an aerosol of 1% OVA in saline for 30 min daily on 3 consecutive days. On day 25, mice were finally challenged by provocation with 10% OVA aerosol. For inhibition experiments, sense or antisense BLT2 (1.6 mg/kg) was injected intravenously 24 h and then 1 h before the 10% OVA challenge. The mice were then killed on day 27 to assess asthmatic phenotypes. Antisense BLT2 oligonucleotide (5′-[…]-3′ (SEQ ID NO: 15)), sense BLT2 oligonucleotide (5′-[…]-3′ (SEQ ID NO: 16)). […]
Airway AHR was measured in unrestrained, conscious mice 24 h after the final OVA challenge using a whole-body plethysmograph, as previously described (29). Mice were placed in a barometric plethysmographic chamber (All Medicus Co., Seoul, Korea), and baseline readings were taken and averaged for 3 min. […] Readings were taken and averaged for 3 min after each nebulization, and enhanced pause (Penh) was determined. Signals were analyzed to derive whole body flow parameters including respiratory rate, tidal volume, inspiratory time (Ti), expiratory time (Te)1. peak inspiratory flow (PIF), peak expiratory flow (PEF), and relaxation time (RT). […] Baseline Penh measurements for each animal were recorded for 3 min and averaged. Results are expressed as the percentage increase of Penh following challenge with each concentration of methacholine, where the baseline Penh (after saline challenge) is expressed as 100%. Penh values averaged for 3 min after each nebulization were evaluated. […]

[2] = tested on: IκB-α; assay: IκB-α level in lung tissue (Western blot); conditions: lung tissue extracts
Protocol: (§1) Female BALB/c mice and C57BL/6 mice (7 weeks old; 18-20 g) were obtained from Orientbion Inc. (Seoungnam, Korea). Sensitization and challenge were carried out as described previously with some modification (28). Briefly, female C57BL/6 mice (7 weeks old; 18-20 g) were immunized by intraperitoneal (i.p.) injection of 200 μg ovalbumin (OVA) emulsified in 2.5 mg of adjuvant aluminum hydroperoxide gel (alum) (Pierce, Rockford, Ill.). A second i.p. injection of 20 μg OVA adsorbed onto alum (2.5 mg) was administered 10 days later. After an additional 10 days, mice were exposed to an aerosol of 1% OVA in saline for 30 min daily on 3 consecutive days. On day 25, mice were finally challenged by provocation with 10% OVA aerosol. For inhibition experiments, sense or antisense BLT2 (1.6 mg/kg) was injected intravenously 24 h and then 1 h before the 10% OVA challenge. The mice were then killed on day 27 to assess asthmatic phenotypes. Antisense BLT2 oligonucleotide (5′-[…]-3′ (SEQ ID NO: 15)), sense BLT2 oligonucleotide (5′-[…]-3′ (SEQ ID NO: 16)).
Alternatively, BALB/c mice were sensitized on day 1 by i.p. injection of 20 μg OVA emulsified in 2.5 mg of alum (Pierce, Rockford, Ill.), followed by an identical booster injection administered on day 14. On days 21, 22 and 23 after initial sensitization, the mice were challenged for 30 min with an aerosol of 1% OVA using an ultrasonic nebulizer. […]

[3] = tested on: NF-κB; assay: NF-κB binding activity in lung nuclear extracts (EMSA)
Protocol: as §1
A double-strand oligonucleotide corresponding to the consensus NF-κB binding motif and a mutant sequence were purchased from Santa Cruz Biotechnology Inc. (Santa Cruz, Calif.) and labeled with γ-32P-ATP using T4 polynucleotide kinase (Roche, Germany). […]

`CCc1cc(C(C)=O)c(O)cc1OCCCCCC(C)(C)c1nnn[nH]1` [LY255283, 1-[5-ethyl-2-hydroxy-4-[[6-methyl-6-(1H-tetrazol-5-yl)heptyl]oxy]phenyl]-ethanone, reference compound] was tested, and the “reduction of Penh (based on area-under-the-curve calculations)” value ([1]; LY255283 2.5 mg/kg i.v.) was −70% and the “reduction of IκB-α degradation following OVA challenge” value ([2]; LY255283 2.5 mg/kg 1 hr before 1% OVA challenge) was −50%.

For “antisense Rac: phosphorothioate 17-mer to the 5′ end of murine Rac mRNA, 5′-CACTTGATGGCCTGCAT-3′ (SEQ ID NO: 22) (listed as DNA, chemistry not fully specified)”, the “AHR after allergen challenge” value ([1]; mouse model system for asthma, antisense oligomers to Rac1) was “remarkably reduced” and the “NF-κB binding activity elicited by OVA challenge” value ([3]; antisense Rac 1.25 mg/kg, tail vein) was “attenuated”.

“antisense BLT2: Antisense BLT2 oligonucleotide 5′-GCTCAGTAGTGTCTCATTCC-3′ (SEQ ID NO: 15) (listed as DNA, chemistry not fully specified)” was tested, and the “reduction of Penh (based on area-under-the-curve calculations)” value ([1]; antisense BLT2 1.6 mg/kg i.v.) was −70%, the “NF-κB binding activity elicited by OVA challenge” value ([3]; antisense BLT2 1.6 mg/kg i.v. 24 hr and 1 hr before provocation) was “attenuated” and the “reduction of IκB-α degradation following OVA challenge” value ([2]; antisense BLT2 1.6 mg/kg) was −50%.
